Assay results taken from ChEMBL document CHEMBL5303573, “Mapping human microbiome drug metabolism by gut bacteria and their genes” (Nature, 2019).

How the values were obtained:
[1] = parabacteroides johnsonii, 12 h, 2 µM
Description: The drug is tested on Parabacteroides johnsonii strain: DSM18315 for biotransformation. The drug concentrations were measured before and after a 12-h incubation by liquid-chromatography-coupled mass spectrometry (LC–MS)

[2] = The drug is tested on Bacteroides pectinophilus strain: ATCC43243 for biotransformation. The drug concentrations were measured before and after a 12-h incubation by liquid-chromatography-coupled mass spectrometry (LC–MS); conditions: 2 µM
[3] = The drug is tested on Clostridium symbiosum strain: ATCC14940 for biotransformation. The drug concentrations were measured before and after a 12-h incubation by liquid-chromatography-coupled mass spectrometry (LC–MS); conditions: 2 µM
[4] = The drug is tested on Enterobacter cancerogenus strain: ATCC35316 for biotransformation. The drug concentrations were measured before and after a 12-h incubation by liquid-chromatography-coupled mass spectrometry (LC–MS); conditions: 2 µM
[5] = The drug is tested on Providencia rettgeri strain: DSM1131 for biotransformation. The drug concentrations were measured before and after a 12-h incubation by liquid-chromatography-coupled mass spectrometry (LC–MS); assay type: ADME; parameters: dose 2 uM, timepoint 0 vs 12 hours; conditions: 2 µM
[6] = The drug is tested on Blautia hansenii strain: DSM20583 for biotransformation. The drug concentrations were measured before and after a 12-h incubation by liquid-chromatography-coupled mass spectrometry (LC–MS); conditions: 2 µM
[7] = The drug is tested on Escherichia coli strain: BW25113 for biotransformation. The drug concentrations were measured before and after a 12-h incubation by liquid-chromatography-coupled mass spectrometry (LC–MS); conditions: 2 µM
[8] = The drug is tested on Clostridium scindens strain: ATCC35704 for biotransformation. The drug concentrations were measured before and after a 12-h incubation by liquid-chromatography-coupled mass spectrometry (LC–MS); conditions: 2 µM
[9] = The drug is tested on Collinsella aerofaciens strain: ATCC25986 for biotransformation. The drug concentrations were measured before and after a 12-h incubation by liquid-chromatography-coupled mass spectrometry (LC–MS); conditions: 2 µM
[10] = The drug is tested on Clostridium ramosum strain: DSM1402 for biotransformation. The drug concentrations were measured before and after a 12-h incubation by liquid-chromatography-coupled mass spectrometry (LC–MS); conditions: thomasclavelia ramosa, 2 µM
[11] = The drug is tested on Bifidobacterium longum subsp. Infantis strain: CCUG52486 for biotransformation. The drug concentrations were measured before and after a 12-h incubation by liquid-chromatography-coupled mass spectrometry (LC–MS); conditions: 2 µM
[12] = enterocloster bolteae, 12 h, 2 µM
Description: The drug is tested on Clostridium bolteae strain: ATCCBAA-613 for biotransformation. The drug concentrations were measured before and after a 12-h incubation by liquid-chromatography-coupled mass spectrometry (LC–MS)

[13] = bifidobacterium adolescentis, 12 h, 2 µM
Description: The drug is tested on Bifidobacterium adolescentis strain: ATCC 15703 for biotransformation. The drug concentrations were measured before and after a 12-h incubation by liquid-chromatography-coupled mass spectrometry (LC–MS)

[14] = The drug is tested on Bacteroides sp. WH2 strain: WH2 for biotransformation. The drug concentrations were measured before and after a 12-h incubation by liquid-chromatography-coupled mass spectrometry (LC–MS); conditions: bacteroides sp. wh2, 12 h, 2 µM
[15] = The drug is tested on Providencia stuartii strain: ATCC25827 for biotransformation. The drug concentrations were measured before and after a 12-h incubation by liquid-chromatography-coupled mass spectrometry (LC–MS); conditions: 2 µM
[16] = The drug is tested on Eubacterium hallii strain: DSM3353 for biotransformation. The drug concentrations were measured before and after a 12-h incubation by liquid-chromatography-coupled mass spectrometry (LC–MS); conditions: anaerobutyricum hallii, 2 µM
[17] = parabacteroides distasonis, 12 h, 2 µM
Description: The drug is tested on Parabacteroides distasonis strain: ATCC8503 for biotransformation. The drug concentrations were measured before and after a 12-h incubation by liquid-chromatography-coupled mass spectrometry (LC–MS)

[18] = bacteroides thetaiotaomicron, 12 h, 2 µM
Description: The drug is tested on Bacteroides thetaiotaomicron strain: VPI-5482 for biotransformation. The drug concentrations were measured before and after a 12-h incubation by liquid-chromatography-coupled mass spectrometry (LC–MS)

[19] = bacteroides fragilis, 12 h, 2 µM
Description: The drug is tested on Bacteroides fragilis strain: 3397 (T10) for biotransformation. The drug concentrations were measured before and after a 12-h incubation by liquid-chromatography-coupled mass spectrometry (LC–MS)

[20] = The drug is tested on Ruminococcus torques strain: ATCC27756 for biotransformation. The drug concentrations were measured before and after a 12-h incubation by liquid-chromatography-coupled mass spectrometry (LC–MS); assay type: ADME; parameters: dose 2 uM, timepoint 0 vs 12 hours; conditions: 2 µM

Compound | Bacterial Biotransformation [1] | Bacterial Biotransformation [2] | Bacterial Biotransformation [3] | Bacterial Biotransformation [4] | Bacterial Biotransformation [5] | Bacterial Biotransformation [6] | Bacterial Biotransformation [7] | Bacterial Biotransformation [8] | Bacterial Biotransformation [9] | Bacterial Biotransformation [10] | Bacterial Biotransformation [11] | Bacterial Biotransformation [12] | Bacterial Biotransformation [13] | Bacterial Biotransformation [14] | Bacterial Biotransformation [15] | Bacterial Biotransformation [16] | Bacterial Biotransformation [17] | Bacterial Biotransformation [18] | Bacterial Biotransformation [19] | Bacterial Biotransformation [20]
CCC1(c2ccc(N)cc2)CCC(=O)NC1=O (centres undefined) [AMINOGLUTETHIMIDE] | Compound NOT metabolized | Compound NOT metabolized | Compound NOT metabolized | Compound NOT metabolized | Compound NOT metabolized | Compound NOT metabolized | Compound NOT metabolized | Compound NOT metabolized | Compound NOT metabolized | Compound NOT metabolized | Compound NOT metabolized | Compound NOT metabolized | Compound NOT metabolized | Compound NOT metabolized | Compound NOT metabolized | Compound NOT metabolized |  |  |  | 
CCc1oc2ccccc2c1C(=O)c1cc(Br)c(O)c(Br)c1 [BENZBROMARONE] | Compound NOT metabolized | Compound NOT metabolized | Compound NOT metabolized | Compound NOT metabolized | Compound NOT metabolized | Compound NOT metabolized | Compound NOT metabolized | Compound NOT metabolized | Compound NOT metabolized | Compound NOT metabolized | Compound NOT metabolized |  | Compound NOT metabolized | Compound NOT metabolized | Compound NOT metabolized | Compound NOT metabolized | Compound NOT metabolized | Compound NOT metabolized | Compound NOT metabolized | 
CN/C(=N/CCSCc1nc[nH]c1C)NC#N [CIMETIDINE] |  | Compound NOT metabolized | Compound NOT metabolized | Compound NOT metabolized | Compound NOT metabolized | Compound NOT metabolized | Compound NOT metabolized |  | Compound NOT metabolized | Compound NOT metabolized |  | Compound NOT metabolized | Compound NOT metabolized | Compound NOT metabolized | Compound NOT metabolized | Compound NOT metabolized | Compound NOT metabolized | Compound metabolized | Compound metabolized | Compound NOT metabolized
CN1CCN(C2=Nc3cc(Cl)ccc3Nc3ccccc32)CC1 [CLOZAPINE] | Compound NOT metabolized | Compound NOT metabolized | Compound NOT metabolized | Compound NOT metabolized | Compound NOT metabolized | Compound NOT metabolized | Compound NOT metabolized | Compound NOT metabolized | Compound NOT metabolized | Compound NOT metabolized | Compound NOT metabolized | Compound NOT metabolized | Compound NOT metabolized | Compound NOT metabolized | Compound NOT metabolized | Compound NOT metabolized |  | Compound NOT metabolized | Compound NOT metabolized | Compound NOT metabolized
CC[C@H](C)C(=O)O[C@H]1CCC=C2C=C[C@H](C)[C@H](CC[C@@H]3C[C@@H](O)CC(=O)O3)[C@H]21 [MEVASTATIN] | Compound metabolized | Compound metabolized | Compound metabolized | Compound metabolized | Compound metabolized | Compound metabolized | Compound metabolized | Compound metabolized | Compound metabolized | Compound metabolized | Compound metabolized | Compound metabolized |  | Compound metabolized | Compound metabolized | Compound metabolized | Compound metabolized | Compound metabolized | Compound metabolized | Compound metabolized
Cc1nc2n(c(=O)c1CCN1CCC(c3noc4cc(F)ccc34)CC1)CCCC2O (centres undefined) [PALIPERIDONE] | Compound metabolized | Compound NOT metabolized | Compound metabolized | Compound metabolized | Compound metabolized | Compound metabolized | Compound metabolized | Compound metabolized | Compound metabolized | Compound metabolized | Compound metabolized | Compound metabolized | Compound NOT metabolized | Compound NOT metabolized |  | Compound metabolized | Compound metabolized | Compound NOT metabolized | Compound metabolized | Compound metabolized
CC(C(=O)O)c1ccc2c(c1)Cc1cccnc1O2 (centres undefined) [PRANOPROFEN] | Compound metabolized | Compound metabolized | Compound metabolized | Compound NOT metabolized | Compound metabolized | Compound metabolized | Compound metabolized | Compound NOT metabolized | Compound NOT metabolized | Compound metabolized | Compound metabolized | Compound metabolized |  | Compound metabolized | Compound metabolized | Compound metabolized | Compound metabolized | Compound metabolized | Compound metabolized | 
COc1ccc2[nH]c([S+]([O-])Cc3ncc(C)c(OC)c3C)nc2n1 (centres undefined) [TENATOPRAZOLE] | Compound metabolized | Compound metabolized |  | Compound metabolized | Compound metabolized | Compound metabolized | Compound metabolized | Compound metabolized | Compound metabolized | Compound metabolized | Compound metabolized |  | Compound metabolized | Compound metabolized | Compound metabolized | Compound metabolized | Compound metabolized | Compound metabolized | Compound metabolized | Compound metabolized
